According to PubChem BioAssay (NCI):
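96-well plates; 48 h exposure; 5 concentrations. Endpoints by linear interpolation between flanking doses. Not reached: highest tested concentration assigned. Here, GI50 denotes the concentration required for 50% inhibition of growth. TGI denotes the concentration required for complete inhibition of growth.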

Experiments:
Experiment in all cases: NCI anticancer screen, dose series, 48 h
[1] = test system: NCI-H226 lung
[2] = test system: HOP-92 NSCLC
[3] = test system: SNB-75 CNS
[4] = test system: TK-10 renal
[5] = test system: HL-60(TB) leukemia
[6] = test system: MDA-MB-435
[7] = test system: HCT-116 colon
[8] = test system: RPMI-8226 leukemia
[9] = test system: OVCAR-4 ovarian
[10] = test system: PC-3 prostate
[11] = test system: CCRF-CEM leukemia
[12] = test system: MCF7 breast
[13] = test system: SF-539 CNS
[14] = test system: M14 melanoma
[15] = test system: UACC-62 melanoma
[16] = test system: HCT-15 colon
[17] = test system: K-562 leukemia
[18] = test system: SK-MEL-2 melanoma
[19] = test system: MALME-3M melanoma
[20] = test system: MDA-MB-231 breast
[21] = test system: LOX IMVI melanoma
[22] = test system: MOLT-4 leukemia
[23] = test system: T-47D breast
[24] = test system: OVCAR-5 ovarian
[25] = test system: OVCAR-8 ovarian
[26] = test system: BT-549 breast
[27] = test system: SNB-19 CNS
[28] = test system: ACHN renal
[29] = test system: DU-145 prostate
[30] = test system: HS 578T breast
[31] = test system: SW-620 colon
[32] = test system: SK-OV-3 ovarian
[33] = test system: 786-0 renal
[34] = test system: RXF 393 renal
[35] = test system: COLO 205 colon
[36] = test system: SK-MEL-28 melanoma
[37] = test system: IGROV1 ovarian
[38] = test system: SF-295 CNS
[39] = test system: KM12 colon
[40] = test system: SK-MEL-5 melanoma
[41] = test system: UACC-257 melanoma
[42] = test system: HOP-62 NSCLC
[43] = test system: SR leukemia
[44] = test system: NCI/ADR-RES ovarian
[45] = test system: NCI-H460 lung
[46] = test system: A498 renal
[47] = test system: CAKI-1 renal
[48] = test system: U251 CNS
[49] = test system: UO-31 renal
[50] = test system: HT29 colon
[51] = test system: SF-268 CNS
[52] = test system: OVCAR-3 ovarian
[53] = test system: SN12C renal
[54] = test system: EKVX NSCLC
[55] = test system: NCI-H23 lung
[56] = test system: A549 NSCLC
[57] = test system: NCI-H522 lung
[58] = test system: HCC-2998 colon

CCC(C)[C@H]1O[C@]2(CC[C@@H]1C)C[C@@H]1C[C@@H](C/C=C(\C)[C@@H](OC3C[C@H](OC)C(O[C@H]4C[C@H](OC)[C@@H](O)[C@H](C)O4)[C@H](C)O3)[C@@H](C)/C=C/C=C3\CO[C@@H]4[C@H](O)C(C)=C[C@@H](C(=O)O1)[C@]34O)O2 (stereo not given in full)
GI50 [1]: 1.58 µM
TGI [1]: 3.79 µM
GI50 [2]: 1.98 µM
TGI [2]: 8.18 µM
GI50 [3]: 2.69 µM
TGI [3]: 7.56 µM
GI50 [4]: 3.08 µM
TGI [4]: 12.7 µM
GI50 [5]: 2.18 µM
TGI [5]: 5.03 µM
GI50 [6]: 3.89 µM
TGI [6]: 15.9 µM
GI50 [7]: 2.72 µM
TGI [7]: 10.7 µM
GI50 [8]: 2.95 µM
TGI [8]: 14.9 µM
GI50 [9]: 3.28 µM
TGI [9]: 10.8 µM
GI50 [10]: 2.64 µM
TGI [10]: 12.8 µM
GI50 [11]: 4 µM
TGI [11]: 21.2 µM
GI50 [12]: 3.02 µM
TGI [12]: 10.8 µM
GI50 [13]: 1.91 µM
TGI [13]: 3.96 µM
GI50 [14]: 3.15 µM
TGI [14]: 11.2 µM
GI50 [15]: 1.89 µM
TGI [15]: 6.5 µM
GI50 [16]: 2.74 µM
TGI [16]: 10.2 µM
GI50 [17]: 3.88 µM
TGI [17]: 15.4 µM
GI50 [18]: 2.04 µM
TGI [18]: 4.79 µM
GI50 [19]: 2.74 µM
TGI [19]: 14.5 µM
GI50 [20]: 2.31 µM
TGI [20]: 6.85 µM
GI50 [21]: 2.3 µM
TGI [21]: 5.79 µM
GI50 [22]: 4.77 µM
TGI [22]: 20.2 µM
GI50 [23]: 1.57 µM
TGI [23]: 3.35 µM
GI50 [24]: 2.05 µM
TGI [24]: 5.67 µM
GI50 [25]: 3.06 µM
TGI [25]: 12.5 µM
GI50 [26]: 2.73 µM
TGI [26]: 7.3 µM
GI50 [27]: 3.75 µM
TGI [27]: 15.6 µM
GI50 [28]: 1.73 µM
TGI [28]: 3.48 µM
GI50 [29]: 5.59 µM
TGI [29]: 18.1 µM
GI50 [30]: 3.76 µM
TGI [30]: 20.7 µM
GI50 [31]: 3.44 µM
TGI [31]: 13.8 µM
GI50 [32]: 2 µM
TGI [32]: 5.04 µM
GI50 [33]: 3.66 µM
TGI [33]: 14 µM
GI50 [34]: 1.37 µM
TGI [34]: 2.81 µM
GI50 [35]: 1.63 µM
TGI [35]: 3.1 µM
GI50 [36]: 2.67 µM
TGI [36]: 7.21 µM
GI50 [37]: 2.95 µM
TGI [37]: 13.5 µM
GI50 [38]: 2.54 µM
TGI [38]: 10.9 µM
GI50 [39]: 3.77 µM
TGI [39]: 14 µM
GI50 [40]: 1.49 µM
TGI [40]: 2.82 µM
GI50 [41]: 2.17 µM
TGI [41]: 6.25 µM
GI50 [42]: 1.8 µM
TGI [42]: 4.85 µM
GI50 [43]: 5.79 µM
TGI [43]: 33.7 µM
GI50 [44]: 3.43 µM
TGI [44]: 13.7 µM
GI50 [45]: 2.91 µM
TGI [45]: 10.6 µM
GI50 [46]: 1.79 µM
TGI [46]: 7.72 µM
GI50 [47]: 2.6 µM
TGI [47]: 11.2 µM
GI50 [48]: 2.21 µM
TGI [48]: 10.6 µM
GI50 [49]: 1.85 µM
TGI [49]: 10.2 µM
GI50 [50]: 2.4 µM
TGI [50]: 5.81 µM
GI50 [51]: 4.14 µM
TGI [51]: 15.6 µM
GI50 [52]: 3.12 µM
TGI [52]: 9.3 µM
GI50 [53]: 3.08 µM
TGI [53]: 11.4 µM
GI50 [54]: 2.95 µM
TGI [54]: 15.1 µM
GI50 [55]: 3.21 µM
TGI [55]: 13.7 µM
GI50 [56]: 2.07 µM
TGI [56]: 11.3 µM

Cc1cc(O)c(=O)cc2c1C[C@H]1CC(C)(C)/C=C/C[C@]3(C)Oc4cc(=O)c(O)cc(C)c4C[C@H]3C[C@H](O)[C@@]1(C)O2
GI50 [1]: 0.0541 µM
TGI [1]: 13.6 µM
GI50 [3]: 0.0262 µM
TGI [3]: 42 µM
GI50 [4]: 0.0211 µM
TGI [4]: 9.95 µM
GI50 [5]: 0.0249 µM
TGI [5]: 0.102 µM
GI50 [6]: < 0.017 µM
GI50 [7]: < 0.01 µM
TGI [7]: > 100 µM
GI50 [8]: 0.0185 µM
TGI [8]: 2.97 µM
GI50 [9]: 0.0172 µM
TGI [9]: > 100 µM
GI50 [10]: < 0.01 µM
TGI [10]: 23.5 µM
GI50 [11]: 0.0163 µM
TGI [11]: 1.21 µM
GI50 [12]: < 0.01 µM
TGI [12]: > 100 µM
GI50 [13]: 0.0332 µM
TGI [13]: 58.6 µM
GI50 [14]: 0.0266 µM
TGI [14]: 19.7 µM
GI50 [15]: 0.0296 µM
TGI [15]: 0.157 µM
GI50 [16]: < 0.01 µM
TGI [16]: > 100 µM
GI50 [19]: 0.0282 µM
TGI [19]: 0.544 µM
GI50 [20]: 0.0322 µM
TGI [20]: 50.3 µM
GI50 [23]: < 0.01 µM
TGI [23]: 0.0949 µM
GI50 [24]: 0.0434 µM
TGI [24]: > 100 µM
GI50 [25]: < 0.01 µM
TGI [25]: 11.6 µM
GI50 [26]: 0.0319 µM
TGI [26]: 4.55 µM
GI50 [27]: < 0.01 µM
TGI [27]: > 67.3 µM
GI50 [28]: < 0.01 µM
TGI [28]: 14.5 µM
GI50 [29]: < 0.01 µM
TGI [29]: > 75.9 µM
GI50 [30]: 0.0339 µM
TGI [30]: > 100 µM
GI50 [31]: < 0.01 µM
TGI [31]: > 100 µM
GI50 [32]: 0.0181 µM
TGI [32]: 0.412 µM
GI50 [33]: 0.0327 µM
TGI [33]: 15.4 µM
GI50 [36]: 0.0423 µM
TGI [36]: 19.9 µM
GI50 [57]: 0.0192 µM
TGI [57]: 0.0853 µM
GI50 [37]: 0.025 µM
TGI [37]: 7.46 µM
GI50 [58]: < 0.0149 µM
TGI [58]: > 100 µM
GI50 [39]: < 0.01 µM
TGI [39]: > 100 µM
GI50 [40]: 0.0166 µM
TGI [40]: 0.0985 µM
GI50 [41]: 0.0215 µM
TGI [41]: 0.0895 µM
GI50 [42]: 0.02 µM
TGI [42]: 0.0987 µM
GI50 [43]: < 0.0115 µM
TGI [43]: 0.591 µM
GI50 [44]: < 0.01 µM
GI50 [45]: < 0.01 µM
TGI [45]: 10.3 µM
GI50 [47]: 0.0225 µM
GI50 [49]: 0.0213 µM
TGI [49]: 0.198 µM
GI50 [50]: < 0.01 µM
TGI [50]: > 100 µM
GI50 [51]: < 0.01 µM
TGI [51]: > 63.1 µM
GI50 [52]: < 0.01 µM
TGI [52]: 19.6 µM
GI50 [53]: < 0.0133 µM
TGI [53]: > 29.2 µM
GI50 [54]: 0.0172 µM
TGI [54]: > 46.2 µM
GI50 [55]: < 0.01 µM
TGI [55]: 0.0345 µM
GI50 [56]: < 0.01 µM
TGI [56]: 2.13 µM
